Among the data in patent US20250215029A1 (Recludix Pharma, Inc., priority 2022, published 2025) are IC50 values, retold here.

SMILES strings stand for the structures. Where two headings read alike, the source gives them in different places.

Usually IC50 stands for the concentration at which inhibition is half-maximal.

Assay [1] has as its target T1, Recombinant STAT6 protein (STAT6 (W123-T658)) (Homo sapiens, UniProt P42226).
T1 construct: Recombinant STAT6 protein (STAT6 (W123-T658))
T1 sequence (P42226 123-658): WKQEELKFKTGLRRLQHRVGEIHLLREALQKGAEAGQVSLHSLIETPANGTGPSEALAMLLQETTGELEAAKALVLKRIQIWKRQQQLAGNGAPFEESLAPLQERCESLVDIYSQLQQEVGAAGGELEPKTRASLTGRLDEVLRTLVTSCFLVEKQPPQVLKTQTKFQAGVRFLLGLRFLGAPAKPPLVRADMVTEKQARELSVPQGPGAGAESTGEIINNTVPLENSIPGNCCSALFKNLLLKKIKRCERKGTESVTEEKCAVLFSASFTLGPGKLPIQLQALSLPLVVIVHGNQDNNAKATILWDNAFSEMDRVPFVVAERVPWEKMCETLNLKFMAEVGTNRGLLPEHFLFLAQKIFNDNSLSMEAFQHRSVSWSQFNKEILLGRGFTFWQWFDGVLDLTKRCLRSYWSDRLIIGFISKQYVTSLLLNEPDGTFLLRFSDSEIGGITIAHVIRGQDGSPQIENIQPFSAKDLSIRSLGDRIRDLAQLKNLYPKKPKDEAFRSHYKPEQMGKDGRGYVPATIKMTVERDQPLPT
Put plainly: STAT6 Fluorescence Polarization (FP) Assay. The following applies: probe 5-FAM-Ap[…]-NH2 2 nM, 45-minute incubation. It counts as binding. The essentials: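 Displacement of a fluorescent phosphotyrosine peptide (2 nM) from 250 nM STAT6 (W123-T658) is measured by polarization after a 45-minute room-temperature incubation. Compounds are titrated serially at 1% DMSO, and IC50 values derive from regression of mP on log concentration.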
A general note: Polarisation of emitted light reports the rotation of a fluorescent probe.

For assay [2], the target named is T2, Recombinant STAT3 protein (STAT3 (G127-I722)) (Homo sapiens, UniProt P40763).
T2 construct: Recombinant STAT3 protein (STAT3 (G127-I722))
T2 sequence (P40763 127-722): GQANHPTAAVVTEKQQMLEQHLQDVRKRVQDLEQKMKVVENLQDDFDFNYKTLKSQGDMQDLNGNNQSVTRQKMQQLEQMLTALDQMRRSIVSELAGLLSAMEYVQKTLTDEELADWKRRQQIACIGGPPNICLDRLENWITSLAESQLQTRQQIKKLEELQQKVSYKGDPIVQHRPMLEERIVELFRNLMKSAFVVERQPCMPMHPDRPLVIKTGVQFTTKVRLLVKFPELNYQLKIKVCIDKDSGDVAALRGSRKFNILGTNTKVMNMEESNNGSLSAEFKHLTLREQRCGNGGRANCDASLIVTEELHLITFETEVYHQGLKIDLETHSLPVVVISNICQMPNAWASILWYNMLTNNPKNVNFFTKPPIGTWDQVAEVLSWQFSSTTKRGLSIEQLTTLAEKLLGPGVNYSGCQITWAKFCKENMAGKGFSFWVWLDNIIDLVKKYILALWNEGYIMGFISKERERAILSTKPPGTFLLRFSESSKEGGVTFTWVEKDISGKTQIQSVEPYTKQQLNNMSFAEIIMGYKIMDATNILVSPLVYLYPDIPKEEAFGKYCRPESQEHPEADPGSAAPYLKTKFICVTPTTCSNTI
The experiment in a line: STAT3 Fluorescence Polarization (FP) Assay. The format is binding. The following applies: probe 5-FAM-GpYLPQTV-NH2 2 nM, 45-minute incubation. In outline: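 Displacement of a 2 nM 5-FAM-labelled pY peptide (GpYLPQTV) from 25 nM recombinant STAT3 (G127-I722) was monitored by fluorescence polarization. Incubation lasted 45 min at room temperature in pH 7.4 HEPES buffer containing 1% DMSO.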

Where [3] appears, read: STAT6 (W123-T658) 250 nM, read-out: STAT6 (FP assay IC50 class).
[4] abbreviates: STAT3 (G127-I722) 25 nM, read-out: STAT3 (FP assay IC50 class).
Where [5] appears, read: STAT6 250 nM, read-out: STAT6 (FP assay IC50).
The mark [6] stands for this setting: STAT3 25 nM, read-out: STAT3 (FP assay IC50).

For `CO[C@H]1CC[C@@H](NC(=O)[C@@H]2CC[C@@H]3CCC[C@H](NC(=O)c4cc5cc(C(F)P(=O)(O)O)ccc5s4)C(=O)N32)C1` (stereo partly drawn) [Compound 535, (fluoro(2-(((3S,6S,9aS)-3-(((1R,3S)-3-methoxycyclopentyl)carbamoyl)-5-oxooctahydro-1H-pyrrolo[1,2-a]azepin-6-yl)carbamoyl)benzo[b]thiophen-5-yl)methyl)phosphonic acid], the IC50 in assay [1] (setting [3]) lay within 3 to 30 µM; in assay [2] (setting [4]), 1 to 10 µM.

With `CN(C)c1nccc(C2CN(C(=O)[C@@H]3CC[C@@H]4CCC[C@H](NC(=O)c5cc6cc([C@@H](F)P(=O)(O)O)ccc6s5)C(=O)N43)C2)n1` (single isomer, unassigned) [Compound 710], the IC50 was in the range of 3 to 30 µM in assay [1] (setting [3]) and 0.1 to 1 µM in assay [2] (setting [4]).

On to `Cc1cc(C#N)ccc1C1CN(C(=O)[C@@H]2CC[C@@H]3CCCC[C@H](NC(=O)c4cc5cc(C(F)(F)P(=O)(O)O)ccc5s4)C(=O)N32)C1` [Compound 1110, ((2-(((3S,6S,10aS)-3-(3-(4-cyano-2-methylphenyl)azetidine-1-carbonyl)-5-oxodecahydropyrrolo[1,2-a]azocin-6-yl)carbamoyl)benzo[b]thiophen-5-yl)difluoromethyl)phosphonic acid], for which the figures for the IC50 in assay [1] (setting [3]) and in assay [2] (setting [4]) were 0.3 to 3 µM and less than 0.1 µM, respectively.

In the case of `C[C@@H]1C[C@H]2CC[C@@H](C(=O)N3CC(c4cccnc4)C3)N2C(=O)[C@@H](NC(=O)c2cc3cc(C(F)(F)P(=O)(O)O)ccc3s2)C1` (single isomer, unassigned) [Compound 110, (difluoro(2-(((3S,6S,8R,9aR)-8-methyl-5-oxo-3-(3-(pyridin-3-yl)azetidine-1-carbonyl)octahydro-1H-pyrrolo[1,2-a]azepin-6-yl)carbamoyl)benzo[b]thiophen-5-yl)methyl) phosphonic acid or (difluoro(2-(((3S,6S,8S,9aR)-8-methyl-5-oxo-3-(3-(pyridin-3-yl)azetidine-1-carbonyl)octahydro-1H-pyrrolo[1,2-a]azepin-6-yl)carbamoyl)benzo[b]thiophen-5-yl)methyl) phosphonic acid], the values for the IC50 in assay [1] (setting [5]) and in assay [2] (setting [6]) were 3 to 30 µM and less than 0.1 µM, respectively.

With `N#C[C@@H]1CN(C(=O)[C@@H]2CC[C@@H]3CCCC[C@H](NC(=O)c4ccc5ccc(C(F)P(=O)(O)O)cc5c4)C(=O)N32)C[C@H]1c1ccccc1` (single isomer, unassigned) [Compound 226], the IC50 was no more than 0.3 µM in assay [1] (setting [3]) and 1 to 10 µM in assay [2] (setting [4]).

As to `N#C[C@H]1[C@H](c2ccccc2)CN(C(=O)[C@@H]2CC[C@@H]3CCCC[C@H](NC(=O)c4cc5cc(C(F)P(=O)(O)O)ccc5s4)C(=O)N32)C12CC2` (relative stereo) [Compound 229, ((2-(((3S,6S,10aS)-3-((rel-trans)-7-cyano-6-phenyl-4-azaspiro[2.4]heptane-4-carbonyl)-5-oxodecahydropyrrolo[1,2-a]azocin-6-yl)carbamoyl)benzo[b]thiophen-5-yl)fluoromethyl)phosphonic acid], the IC50 in assay [1] (setting [3]) is no more than 0.3 µM; in assay [2] (setting [4]), 1 to 10 µM.

Turning to `CC(C)Oc1ccncc1C1CN(C(=O)[C@@H]2CC[C@@H]3C[C@@H](C)C[C@H](NC(=O)c4cc5cc([C@H](F)P(=O)(O)O)ccc5s4)C(=O)N32)C1` (single isomer, unassigned) [Compound 748], the figures for the IC50 in assay [1] (setting [3]) and in assay [2] (setting [4]) were 3 to 30 µM and less than 0.1 µM, respectively.

For the compound `Cc1c(F)cncc1C1CN(C(=O)[C@@H]2CC[C@@H]3CCC[C@H](NC(=O)c4cc5cc(CP(=O)(O)O)ccc5s4)C(=O)N32)C1` [Compound 504, ((2-(((3S,6S,9aS)-3-(3-(5-fluoro-4-methylpyridin-3-yl)azetidine-1-carbonyl)-5-oxooctahydro-1H-pyrrolo[1,2-a]azepin-6-yl)carbamoyl)benzo[b]thiophen-5-yl)methyl)phosphonic acid], the IC50 was 3 to 30 µM in assay [1] (setting [3]) and 1 to 10 µM in assay [2] (setting [4]).

On to `O=C(N[C@H]1CCCC[C@H]2CC[C@@H](C(=O)N3CC(NC(=O)C4CC4)(c4ccccn4)C3)N2C1=O)c1cc2cc(C(F)(F)P(=O)(O)O)ccc2s1` [Compound 123, ((2-(((3S,6S, 10aS)-3-(3-(cyclopropane-carboxamido)-3-(pyridin-2-yl)azetidine-1-carbonyl)-5-oxodeca-hydropyrrolo [1,2-a]azocin-6-yl)carbamoyl)benzo[b]thiophen-5-yl)difluoromethyl) phosphonic acid], for which the IC50 was 3 to 30 µM in assay [1] (setting [5]) and less than 0.1 µM in assay [2] (setting [6]).

Regarding `O=C(N[C@H]1CCCC[C@H]2CC[C@@H](C(=O)NCc3ccc4nccnc4c3)N2C1=O)c1cc2cc(C(F)(F)P(=O)(O)O)ccc2s1` [Compound 825, (difluoro(2-(((3S,6S,10aS)-5-oxo-3-((quinoxalin-6-ylmethyl)carbamoyl)decahydropyrrolo [1,2-a]azocin-6-yl)carbamoyl)benzo [b]thiophen-5-yl)methyl) phosphonic acid], the half-maximal inhibitory concentration (IC50) in assay [1] (setting [3]) lay within 0.3 to 3 µM; in assay [2] (setting [4]), 0.1 to 1 µM.

In the case of `O=C(N[C@H]1CCCC[C@H]2CC[C@@H](C(=O)N3C[C@@H](c4cccnc4)CC34CC4)N2C1=O)c1cc2cc([C@H](F)P(=O)(O)O)ccc2s1` (single isomer, unassigned) [Compound 908], the half-inhibitory concentration (IC50) in assay [1] (setting [3]) is no more than 0.3 µM; in assay [2] (setting [4]) it was 1 to 10 µM.

Regarding `O=C(N[C@H]1CCCC[C@H]2CC[C@@H](C(=O)N3CC(Cc4ccccn4)C3)N2C1=O)c1cc2cc(C(F)(F)P(=O)(O)O)ccc2s1` [Compound 718, (difluoro(2-(((3S,6S,10aS)-5-oxo-3-(3-(pyridin-2-ylmethyl)azetidine-1-carbonyl)decahydropyrrolo[1,2-a]azocin-6-yl)carbamoyl)benzo [b]thiophen-5-yl)methyl) phosphonic acid], the results for the IC50 in assay [1] (setting [3]) and in assay [2] (setting [4]) were 0.3 to 3 µM and less than 0.1 µM, respectively.

`O=C(N[C@H]1CCCC[C@H]2CC[C@@H](C(=O)N3CCc4c(cc[nH]c4=O)C3)N2C1=O)c1cc2cc(C(F)(F)P(=O)(O)O)ccc2s1` [Compound 48, (difluoro(2-(((3S,6S,10aS)-5-oxo-3-(5-oxo-1,2,3,4,5,6-hexahydro-2,6-naphthyridine-2-carbonyl)decahydropyrrolo [1,2-a]azocin-6-yl)carbamoyl)benzo[b]thiophen-5-yl)methyl) phosphonic acid]: the half-maximal inhibitory concentration (IC50) in assay [1] (setting [5]) lay in the range of 3 to 30 µM; in assay [2] (setting [6]), 1 to 10 µM.

`CN(CCc1cc[nH]c(=O)c1)C(=O)[C@@H]1CC[C@@H]2CCCC[C@H](NC(=O)c3cc4cc(C(F)(F)P(=O)(O)O)ccc4s3)C(=O)N21` [Compound 788, (difluoro(2-(((3S,6S,10aS)-3-(methyl(2-(2-oxo-1,2-dihydropyridin-4-yl)ethyl)carbamoyl)-5-oxodecahydropyrrolo [1,2-a]azocin-6-yl)carbamoyl)benzo [b]thiophen-5-yl)methyl) phosphonic acid]: the IC50 in assay [1] (setting [3]) was 0.3 to 3 µM; in assay [2] (setting [4]) it was 1 to 10 µM.

`O=C(N[C@H]1CCCC[C@H]2CC[C@@H](C(=O)N3C[C@H](c4cccnc4)CC34CC4)N2C1=O)c1cc2cc([C@H](F)P(=O)(O)O)ccc2s1` (single isomer, unassigned) [Compound 911]: the IC50 is no more than 0.3 µM in assay [1] (setting [3]) and 1 to 10 µM in assay [2] (setting [4]).

As for `COc1nn(C)cc1C1CN(C(=O)[C@@H]2CC[C@@H]3CCC[C@H](NC(=O)c4cc5cc(C(F)P(=O)(O)O)ccc5s4)C(=O)N32)C1` (stereo partly drawn) [Compound 714, (fluoro(2-(((3S,6S,9aS)-3-(3-(3-methoxy-1-methyl-1H-pyrazol-4-yl)azetidine-1-carbonyl)-5-oxooctahydro-1H-pyrrolo[1,2-a]azepin-6-yl)carbamoyl)benzo [b]thiophen-5-yl)methyl) phosphonic acid], the IC50 in assay [1] (setting [3]) lay in the range of 3 to 30 µM; in assay [2] (setting [4]), 0.1 to 1 µM.

As to `CN(C)c1c(F)cncc1C1CN(C(=O)[C@@H]2CC[C@@H]3CCC[C@H](NC(=O)c4cc5cc([C@H](F)P(=O)(O)O)ccc5s4)C(=O)N32)C1` (single isomer, unassigned) [Compound 685], the IC50 in assay [1] (setting [3]) is 3 to 30 µM; in assay [2] (setting [4]), less than 0.1 µM.

As for `COc1cc(C2CN(C(=O)C3CCC4CCCCC(NC(=O)c5cc6cc(C(F)(F)P(=O)(O)O)ccc6s5)C(=O)N43)CC2C#N)cc(C)n1` (mixture of isomers) [Compound 874, ((2-(((3S,6S,10aS)-3-((rel-trans)-3-cyano-4-(2-methoxy-6-methylpyridin-4-yl)pyrrolidine-1-carbonyl)-5-oxodecahydropyrrolo[1,2-a]azocin-6-yl)carbamoyl)benzo [b]thiophen-5-yl)difluoromethyl) phosphonic acid], the IC50 was 0.3 to 3 µM in assay [1] (setting [3]) and 1 to 10 µM in assay [2] (setting [4]).
